# Experimental data taken from US9511068B2, “Composition for treating or preventing diseases caused by vascular permeability, containing imatinib or pharmaceutically acceptable salt thereof as active ingredient” (AJOU UNIVERSITY INDUSTRY - ACADEMIC COOPERATION FOUNDATION, priority 2012, dated 2016).
# Counter-ions that a name gives are not always drawn.
# Tested on: retinal vascular permeability
# Assay: Retinal vascular permeability (FITC-dextran leakage) in STZ-induced diabetic retinopathy rat models
# Format: in vivo, Sprague Dawley (SD) rats
# Settings: STZ 200 mg/kg i.p. rats; retina treated with 50, 100 or 250 μg imatinib mesylate at the same time as STZ; observed after 2 weeks by fluorescence microscope
# Procedure: Sprague Dawley (SD) rats were administered intraperitoneally with streptozotocin (STZ; Sigma) at a dose of 200 mg/kg (control group), or were injected with STZ while the retina of the animal models were treated with 50, 100 or 250 μg of imatinib mesylate (Novartis, Switzerland) (test groups).
# Meanwhile, after the animal models (control and test groups) were housed for 2 weeks, the animal models were anesthetized, and fluorescein isothiocyanate (FITC)-labeled dextran was injected intracardiacally so that the fluorescent substance flowed along the blood vessels.
smiles,measurement,value
Cc1ccc(NC(=O)c2ccc(CN3CCN(C)CC3)cc2)cc1Nc1nccc(-c2cccnc2)n1 [imatinib mesylate],leak degree of the fluorescent substance (FITC-labeled dextran) in the retina / vascular permeability,significantly reduced
